Results as given in patent publication US7781591B2, “Substituted 3-cyanopyridines as protein kinase inhibitors” (Wyeth LLC, priority 2006, dated 2010).
pIC50: −log10 of the molar value.

Assays:
[1] = molecular target: T1, purified recombinant full length PKC theta (Panvera, P2996) (Homo sapiens, UniProt Q04759); test: Radioactive kinase assay for inhibition of full length (FL) PKCθ; format: biochemical; conditions: average value
T1 construct: purified recombinant full length PKC theta (Panvera, P2996); purchased Panvera P2996
Method: This assay is based on the phosphorylation of a biotinylated substrate by a kinase utilizing radiolabeled ATP (ATP γ P33). The substrate was a biotinylated peptide with a sequence of biotin-[…]-C(O)NH2. […] The assay buffer was composed of 100 mM Hepes, pH7.5, 2 mM MgCl2, 20 mM β-glycerophosphate and 0.008% TritonX 100. A reaction mixture of ATP, ATP γ P33 (PerkinElmer), DTT, and the enzyme was prepared in the assay buffer and added to a 96-well polypropylene plate. The compound (diluted in DMSO in a separate 96-well polypropylene plate) was added to the reaction mixture and incubated at room temperature. Following the incubation, the peptide substrate was added to the reaction mixture to initiate the enzymatic reaction. The reaction was terminated with the addition of a stop solution (100 mM EDTA, 0.2% TritonX100, and 20 mM NaHPO4) and transferred from the assay plate to a washed streptavidin-coated 96-well scintiplate (PerkinElmer). […] Counts were recorded for each well as corrected counts per minute (CCPM). The counts were considered corrected because they were adjusted according to a P33 normalization protocol, which corrects for efficiency and background differences between the instrument detectors (software version 4.40.01).
A Radioactive Kinase Assay for Inhibition of Full Length (FL) PKCθ Inhibitors
This assay differs from what was described above in that the enzyme used was purified recombinant full length PKC theta (Panvera, P2996).

[2] = molecular target: T2, human PKCθ full length enzyme (Homo sapiens, UniProt Q04759); test: PKCθ IMAP assay (fluorescence polarization); format: biochemical; conditions: human PKCθ full length enzyme, IMAP; average value; read-out: IC50 PKCθ IMAP
T2 construct: human PKCθ full length enzyme (Panvera Cat# P2996); purchased Panvera P2996
T2 sequence (Q04759 whole entry): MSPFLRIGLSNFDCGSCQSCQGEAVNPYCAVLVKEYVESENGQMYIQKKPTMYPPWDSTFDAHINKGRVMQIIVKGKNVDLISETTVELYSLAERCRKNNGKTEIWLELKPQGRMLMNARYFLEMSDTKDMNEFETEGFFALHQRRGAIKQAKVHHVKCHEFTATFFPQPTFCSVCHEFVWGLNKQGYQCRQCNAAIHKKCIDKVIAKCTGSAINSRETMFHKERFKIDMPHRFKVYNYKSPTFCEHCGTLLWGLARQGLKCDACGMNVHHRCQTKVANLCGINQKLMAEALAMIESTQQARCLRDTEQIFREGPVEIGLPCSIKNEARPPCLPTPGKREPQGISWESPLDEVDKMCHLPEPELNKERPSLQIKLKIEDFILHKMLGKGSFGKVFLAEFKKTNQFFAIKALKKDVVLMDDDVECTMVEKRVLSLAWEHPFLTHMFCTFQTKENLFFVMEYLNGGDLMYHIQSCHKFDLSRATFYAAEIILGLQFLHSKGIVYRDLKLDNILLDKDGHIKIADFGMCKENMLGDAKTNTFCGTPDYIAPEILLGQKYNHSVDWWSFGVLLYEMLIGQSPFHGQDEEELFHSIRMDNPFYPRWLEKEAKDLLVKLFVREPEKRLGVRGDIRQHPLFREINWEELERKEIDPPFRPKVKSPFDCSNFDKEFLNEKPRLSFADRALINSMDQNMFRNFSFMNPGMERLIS

T1 sequence (Q04759 whole entry): as above

| Structure (SMILES) | pIC50 [1] | pIC50 [2] |
| --- | --- | --- |
| N#Cc1cncc(-c2cccc(-c3cccc(N)c3)c2)c1Nc1ccc2[nH]ccc2c1 [Compound 117, 5-(3′-aminobiphenyl-3-yl)-4-(1H-indol-5-ylamino)nicotinonitrile] | 6.85 |  |
| N#Cc1ccc(-c2cccc(-c3cncc(C#N)c3Nc3ccc4[nH]ccc4c3)c2)cc1 [Compound 118, 5-(4′-cyanobiphenyl-3-yl)-4-(1H-indol-5-ylamino)nicotinonitrile] | 7.05 |  |
| N#Cc1cncc(-c2cccc(-c3ccncc3)c2)c1Nc1ccc2[nH]ccc2c1 [Compound 121, 4-(1H-indol-5-ylamino)-5-(3-pyridin-4-ylphenyl)nicotinonitrile] | 6.77 |  |
| CN(C)C(=O)c1ccc(-c2cccc(-c3cncc(C#N)c3Nc3ccc4[nH]ccc4c3)c2)cc1 [Compound 122, 3′-[5-cyano-4-(1H-indol-5-ylamino)pyridin-3-yl]-N,N-dimethylbiphenyl-4-carboxamide] | 6.47 |  |
| Cc1cccc(-c2cccc(-c3cncc(C#N)c3Nc3ccc4[nH]ccc4c3)c2)c1 [Compound 127, 4-(1H-indol-5-ylamino)-5-(3′-methylbiphenyl-3-yl)nicotinonitrile] | 6.54 |  |
| N#Cc1cncc(-c2cccc(-c3cccc(C(=O)O)c3)c2)c1Nc1ccc2[nH]ccc2c1 [Compound 133, 3′-[5-cyano-4-(1H-indol-5-ylamino)pyridin-3-yl]biphenyl-3-carboxylic acid] | 6.43 |  |
| N#Cc1cncc(-c2cccc(-c3ccc(C(=O)O)cc3)c2)c1Nc1ccc2[nH]ccc2c1 [Compound 134, 3′-[5-cyano-4-(1H-indol-5-ylamino)pyridin-3-yl]biphenyl-4-carboxylic acid] | 6.41 |  |
| N#Cc1cncc(-c2cccc(-c3cccnc3)c2)c1Nc1ccc2[nH]ccc2c1 [Compound 137, 4-(1H-indol-5-ylamino)-5-(3-pyridin-3-ylphenyl)nicotinonitrile] | 7.15 |  |
| N#Cc1cncc(-c2cccc(-c3ccsc3)c2)c1Nc1ccc2[nH]ccc2c1 [Compound 141, 4-(1H-indol-5-ylamino)-5-[3-(3-thienyl)phenyl]nicotinonitrile] | 7.05 |  |
| N#Cc1cncc(-c2ccccc2-c2ccccc2Cl)c1Nc1ccc2[nH]ccc2c1 [Compound 143, 5-(2′-chlorobiphenyl-2-yl)-4-(1H-indol-5-ylamino)nicotinonitrile] | 6.04 |  |
| N#Cc1cncc(-c2ccccc2-c2cccc(Cl)c2)c1Nc1ccc2[nH]ccc2c1 [Compound 144, 5-(3′-chlorobiphenyl-2-yl)-4-(1H-indol-5-ylamino)nicotinonitrile] | 6.04 |  |
| N#Cc1cncc(-c2ccccc2-c2ccc(Cl)cc2)c1Nc1ccc2[nH]ccc2c1 [Compound 145, 5-(4′-chlorobiphenyl-2-yl)-4-(1H-indol-5-ylamino)nicotinonitrile] | 5.72 |  |
| N#Cc1cncc(-c2ccccc2-c2ccsc2)c1Nc1ccc2[nH]ccc2c1 [Compound 146, 4-(1H-indol-5-ylamino)-5-[2-(3-thienyl)phenyl]nicotinonitrile] | 5.88 |  |

The remaining lines, values ahead:

| pIC50 [1] | pIC50 [2] | Structure (SMILES) |
| --- | --- | --- |
| 5.71 |  | CC(=O)Nc1cccc(-c2cncc(C#N)c2Nc2ccc3[nH]ccc3c2)c1 [Compound 152, N-{3-[5-cyano-4-(1H-indol-5-ylamino)pyridin-3-yl]phenyl}acetamide] |
| 7.40 |  | COCCOc1cc(-c2cncc(C#N)c2Nc2cccc3[nH]ccc23)ccc1OC [Compound 153, 4-(1H-indol-4-ylamino)-5-[4-methoxy-3-(2-methoxyethoxy)phenyl]nicotinonitrile] |
| 5.11 |  | COCCOc1cc(-c2cncc(C#N)c2Nc2ccc3cc[nH]c3c2)ccc1OC [Compound 155, 4-(1H-indol-6-ylamino)-5-[4-methoxy-3-(2-methoxyethoxy)phenyl]nicotinonitrile] |
| < 4.70 |  | COCCOc1cc(-c2cncc(C#N)c2Nc2ccc3ncsc3c2)ccc1OC [Compound 156, 4-(1,3-benzothiazol-6-ylamino)-5-[4-methoxy-3-(2-methoxyethoxy)phenyl]nicotinonitrile] |
| 6.26 |  | COCCOc1cc(-c2cncc(C#N)c2Nc2ccc3[nH]c(C)cc3c2)ccc1OC [Compound 157, 5-[4-methoxy-3-(2-methoxyethoxy)phenyl]-4-[(2-methyl-1H-indol-5-yl)amino]nicotinonitrile] |
| 4.43 |  | COCCOc1cc(-c2cncc(C#N)c2Nc2ccc3[nH]nnc3c2)ccc1OC [Compound 158, 4-(1H-1,2,3-benzotriazol-5-ylamino)-5-[4-methoxy-3-(2-methoxyethoxy)phenyl]nicotinonitrile] |
| 6.85 |  | COCCOc1ccc(-c2cncc(C#N)c2Nc2ccc3[nH]ccc3c2)cc1OC [Compound 160, 4-(1H-indol-5-ylamino)-5-[3-methoxy-4-(2-methoxyethoxy)phenyl]nicotinonitrile] |
| 5.26 |  | COCCOc1ccc(-c2cncc(C#N)c2Nc2ccc3cc[nH]c3c2)cc1OC [Compound 161, 4-(1H-indol-6-ylamino)-5-[3-methoxy-4-(2-methoxyethoxy)phenyl]nicotinonitrile] |
| 4.82 |  | COCCOc1ccc(-c2cncc(C#N)c2Nc2ccc3ncsc3c2)cc1OC [Compound 162, 4-(1,3-benzothiazol-6-ylamino)-5-[3-methoxy-4-(2-methoxyethoxy)phenyl]nicotinonitrile] |
| 6.49 |  | COCCOc1ccc(-c2cncc(C#N)c2Nc2ccc3[nH]c(C)cc3c2)cc1OC [Compound 163, 5-[3-methoxy-4-(2-methoxyethoxy)phenyl]-4-[(2-methyl-1H-indol-5-yl)amino]nicotinonitrile] |
| 7.70 |  | N#Cc1cncc(-c2cccc(OCCCl)c2)c1Nc1cccc2[nH]ccc12 [Compound 165, 5-[3-(2-chloroethoxy)phenyl]-4-(1H-indol-4-ylamino)nicotinonitrile] |
| 5.42 |  | N#Cc1cncc(-c2cccc(OCCCl)c2)c1Nc1ccc2cc[nH]c2c1 [Compound 166, 5-[3-(2-chloroethoxy)phenyl]-4-(1H-indol-6-ylamino)nicotinonitrile] |
| 6.96 |  | N#Cc1cncc(-c2cccc(OCCCl)c2)c1Nc1ccc2[nH]ccc2c1 [Compound 167, 5-[3-(2-chloroethoxy)phenyl]-4-(1H-indol-5-ylamino)nicotinonitrile] |
| 7.52 |  | N#Cc1cncc(-c2cccc(OCCN3CCCC3)c2)c1Nc1cccc2[nH]ccc12 [Compound 169, 4-(1H-indol-4-ylamino)-5-[3-(2-pyrrolidin-1-ylethoxy)phenyl]nicotinonitrile] |
| 7.70 |  | N#Cc1cncc(-c2cccc(OCCN3CCOCC3)c2)c1Nc1cccc2[nH]ccc12 [Compound 170, 4-(1H-indol-4-ylamino)-5-[3-(2-morpholin-4-ylethoxy)phenyl]nicotinonitrile] |
| 5.59 |  | N#Cc1cncc(-c2cccc(OCCN3CCCC3)c2)c1Nc1ccc2cc[nH]c2c1 [Compound 172, 4-(1H-indol-6-ylamino)-5-[3-(2-pyrrolidin-1-ylethoxy)phenyl]nicotinonitrile] |
| 5.58 |  | N#Cc1cncc(-c2cccc(OCCN3CCOCC3)c2)c1Nc1ccc2cc[nH]c2c1 [Compound 173, 4-(1H-indol-6-ylamino)-5-[3-(2-morpholin-4-ylethoxy)phenyl]nicotinonitrile] |
|  | 7.34 | Cc1c(Nc2c(C#N)cncc2-c2cccc3[nH]ccc23)ccc2[nH]ccc12 [Compound 595, 5-(1H-indol-4-yl)-4-(4-methyl-1H-indol-5-ylamino)nicotinonitrile] |
